Consider one compound from article PMC4620497 (Scientific Reports, 2015).

Molecules are shown by their SMILES. Where only a bound is given, the exact number is not on record here.

The target in one test is T1, ERK4 (Homo sapiens, UniProt P31152).
T1 construct: purchased DiscoveRx KINOMEscan (Ambit Biosciences)
The test is described as follows: KINOMEscan panel screen. The test is classed as binding. The conditions noted are these: read-out: Percent Control(%).

The next test addresses T2, TXK (Homo sapiens, UniProt P42681).
T2 construct: purchased DiscoveRx KINOMEscan (Ambit Biosciences)
The test is described as follows: KINOMEscan panel screen. Format: binding. The conditions noted are these: read-out: Percent Control(%).

The target of test [1] is T3, EGFR(L747-E749del, A750P) (Homo sapiens, UniProt P00533, A750P/DEL747-749).
T3 construct: purchased DiscoveRx KINOMEscan (Ambit Biosciences)
Put plainly: KINOMEscan panel screen. The test is classed as binding. The conditions noted are these: read-out: Percent Control(%).

A further test deals with T4, ALK(C1156Y) (Homo sapiens, UniProt Q9UM73, C1156Y).
T4 construct: purchased DiscoveRx KINOMEscan (Ambit Biosciences)
Put plainly: KINOMEscan panel screen. The test is classed as binding. The following applies: read-out: Percent Control(%).

For another test, the target named is T5, EPHB1 (Homo sapiens, UniProt P54762).
T5 construct: purchased DiscoveRx KINOMEscan (Ambit Biosciences)
Put plainly: KINOMEscan panel screen. Format: binding. The following applies: read-out: Percent Control(%).

The next test addresses T6, EGFR(G719S) (Homo sapiens, UniProt P00533, G719S).
T6 construct: purchased DiscoveRx KINOMEscan (Ambit Biosciences)
Put plainly: KINOMEscan panel screen. Format: binding. The conditions noted are these: read-out: Percent Control(%).

The target of a further test is T7, INSRR (Homo sapiens, UniProt P14616).
T7 construct: purchased DiscoveRx KINOMEscan (Ambit Biosciences)
Put plainly: KINOMEscan panel screen. The test is classed as binding. The conditions noted are these: read-out: Percent Control(%).

A further test concerns the target CDK2 (Homo sapiens, UniProt P24941). The test is described as follows: KINOMEscan panel screen. Format: binding. The following applies: read-out: Percent Control(%).
Another test has as its system Ramos. The test is described as follows: MTT cell viability assay. The conditions noted are these: Homo sapiens, 72 h. On the technique in general: Tetrazolium assays rely on reduction of a dye to a coloured formazan, in cell work by metabolically active cells.
The next test deals with T8, MLCK (Homo sapiens, UniProt Q32MK0).
T8 construct: purchased DiscoveRx KINOMEscan (Ambit Biosciences)
The test is described as follows: KINOMEscan panel screen. The test is classed as binding. The following applies: read-out: Percent Control(%).

In the next test the target is T9, RIOK2 (Homo sapiens, UniProt Q9BVS4).
T9 construct: purchased DiscoveRx KINOMEscan (Ambit Biosciences)
Put plainly: KINOMEscan panel screen. Format: binding. The conditions noted are these: read-out: Percent Control(%).

Another test relates to MV4-11 cells. The test is described as follows: Apoptosis assay (AnnexinV/PI staining). The test is classed as cell-based, human. The following applies: 3 nM. The procedure: PI staining was used to detect the cell cycle status. […] The induction of apoptosis following treatment of MV4-11 cells was examined by AnnexinV/PI staining assays.
Flow cytometry was used for cell cycle and apoptosis assays. MV4-11 cells were treated with SKLB-677 for 24 h, and then the cells were harvested and washed with PBS. Cell Cycle and Apoptosis Analysis Kit (Beyotime) was used for cell cycle analysis and the Annexin V-FITC & PI Cell Apoptosis Analysis Kit (KeyGENE BioTECH) was used for apoptosis assays. The data was analyzed using FLOWJO software (V7.6.5).
Figure 2 SKLB-677 inhibited FLT3 activation and induced cell cycle arrest and apoptosis. (a) MV4-11 cells were treated with various concentrations of SKLB-677 or 0.1% DMSO for 1 h. The phosphorylation levels of FLT3 and downstream signal proteins were assessed using antibodies against total FLT3 (FLT3), phosphorylated Y589/591 FLT3 (p-FLT3), total STAT5 (STAT5), phosphorylated Y694 STAT5 (p-STAT5), total p44/42 MAPK (Erk1/2), and phosphorylated Y202/204 p44/42 MAPK (p-Erk1/2). β-actin was used as a loading control. (b) Primary PBMCs isolated from AML patients (FLT3-ITD positive) were treated with various concentrations of SKLB-677 or 0.1% DMSO for 6 h. The phosphorylation levels of FLT3 and downstream signal proteins were detected used the same method as that in panel a. […]

The next test has as its system C32. The test is described as follows: MTT cell viability assay. The conditions noted are these: Homo sapiens, C32, 72 h.
A further test addresses T10, PIM1 (Homo sapiens, UniProt P11309).
T10 construct: purchased DiscoveRx KINOMEscan (Ambit Biosciences)
The test is described as follows: KINOMEscan panel screen. Format: binding. The following applies: read-out: Percent Control(%).

For test [2], the target named is T11, JAK3(JH1domain-catalytic) (Homo sapiens, UniProt P52333).
T11 construct: JAK3(JH1domain-catalytic); purchased DiscoveRx KINOMEscan (Ambit Biosciences)
T11 sequence (P52333 822-1111 limits assumed): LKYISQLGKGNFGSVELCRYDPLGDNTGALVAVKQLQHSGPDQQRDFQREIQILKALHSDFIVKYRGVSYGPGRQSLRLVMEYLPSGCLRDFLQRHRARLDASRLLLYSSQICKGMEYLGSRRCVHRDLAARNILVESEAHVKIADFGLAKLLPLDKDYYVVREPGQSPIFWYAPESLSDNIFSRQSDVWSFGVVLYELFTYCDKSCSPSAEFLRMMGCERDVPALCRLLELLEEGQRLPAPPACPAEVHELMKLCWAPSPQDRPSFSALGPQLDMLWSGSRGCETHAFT
The test is described as follows: KINOMEscan panel screen. The test is classed as binding. The conditions noted are these: read-out: Percent Control(%).

The next test has as its target T12, DCAMKL3 (Homo sapiens, UniProt Q9C098).
T12 construct: purchased DiscoveRx KINOMEscan (Ambit Biosciences)
The test is described as follows: KINOMEscan panel screen. The test is classed as binding. The conditions noted are these: read-out: Percent Control(%).

The subject of a further test is EGFR(L747-T751del,Sins). The test is described as follows: KINOMEscan panel screen. The test is classed as binding. The conditions noted are these: 10 μM.
The target of test [3] is T13, ABL1(F317L)-nonphosphorylated (Homo sapiens, UniProt P00519, F317L).
T13 construct: purchased DiscoveRx KINOMEscan (Ambit Biosciences)
Put plainly: KINOMEscan panel screen. The test is classed as binding. The conditions noted are these: read-out: Percent Control(%).

The next test deals with T14, PIK3CA(C420R) (Homo sapiens, UniProt P42336, C420R).
T14 construct: purchased DiscoveRx KINOMEscan (Ambit Biosciences)
T14 sequence (P42336 whole entry C420R): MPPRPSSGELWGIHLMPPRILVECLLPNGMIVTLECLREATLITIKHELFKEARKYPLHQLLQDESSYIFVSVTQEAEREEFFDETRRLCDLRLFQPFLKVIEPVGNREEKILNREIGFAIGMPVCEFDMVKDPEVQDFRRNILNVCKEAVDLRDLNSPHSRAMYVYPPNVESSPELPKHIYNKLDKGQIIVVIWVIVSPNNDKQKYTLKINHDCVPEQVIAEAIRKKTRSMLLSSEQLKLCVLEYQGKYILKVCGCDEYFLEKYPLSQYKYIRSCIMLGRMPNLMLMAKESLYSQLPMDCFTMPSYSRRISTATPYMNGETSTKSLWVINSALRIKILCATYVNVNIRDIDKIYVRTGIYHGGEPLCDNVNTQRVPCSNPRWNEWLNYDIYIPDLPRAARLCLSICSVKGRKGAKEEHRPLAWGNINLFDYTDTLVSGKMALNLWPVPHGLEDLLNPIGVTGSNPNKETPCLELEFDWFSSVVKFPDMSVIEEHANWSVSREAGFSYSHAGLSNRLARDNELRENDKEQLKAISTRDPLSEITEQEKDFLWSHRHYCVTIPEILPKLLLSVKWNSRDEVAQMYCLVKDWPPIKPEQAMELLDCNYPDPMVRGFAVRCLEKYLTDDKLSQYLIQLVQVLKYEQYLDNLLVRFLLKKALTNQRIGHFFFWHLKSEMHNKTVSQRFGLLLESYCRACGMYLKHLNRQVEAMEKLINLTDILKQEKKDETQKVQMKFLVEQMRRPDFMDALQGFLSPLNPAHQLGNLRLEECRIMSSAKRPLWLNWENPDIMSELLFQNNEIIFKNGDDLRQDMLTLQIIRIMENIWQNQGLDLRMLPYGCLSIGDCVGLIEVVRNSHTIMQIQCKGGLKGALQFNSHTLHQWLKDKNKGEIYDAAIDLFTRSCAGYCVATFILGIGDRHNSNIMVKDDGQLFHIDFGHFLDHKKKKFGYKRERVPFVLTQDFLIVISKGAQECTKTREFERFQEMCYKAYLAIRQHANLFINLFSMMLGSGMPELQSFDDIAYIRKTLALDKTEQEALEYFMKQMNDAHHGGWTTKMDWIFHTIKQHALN
Put plainly: KINOMEscan panel screen. Format: binding. The following applies: read-out: Percent Control(%).

A further test concerns the target T15, MEK3 (Homo sapiens, UniProt P46734).
T15 construct: purchased DiscoveRx KINOMEscan (Ambit Biosciences)
Put plainly: KINOMEscan panel screen. The conditions noted are these: read-out: Percent Control(%). Format: binding.

The target in the next test is T16, MLK2 (Homo sapiens, UniProt Q02779).
T16 construct: purchased DiscoveRx KINOMEscan (Ambit Biosciences)
The test is described as follows: KINOMEscan panel screen. The following applies: read-out: Percent Control(%). Format: binding.

The next test has as its target T17, RIPK1 (Homo sapiens, UniProt Q13546).
T17 construct: purchased DiscoveRx KINOMEscan (Ambit Biosciences)
The test is described as follows: KINOMEscan panel screen. The test is classed as binding. The following applies: read-out: Percent Control(%).

The target of another test is T18, PRKCQ (Homo sapiens, UniProt Q04759).
T18 construct: purchased DiscoveRx KINOMEscan (Ambit Biosciences)
T18 sequence (Q04759 whole entry): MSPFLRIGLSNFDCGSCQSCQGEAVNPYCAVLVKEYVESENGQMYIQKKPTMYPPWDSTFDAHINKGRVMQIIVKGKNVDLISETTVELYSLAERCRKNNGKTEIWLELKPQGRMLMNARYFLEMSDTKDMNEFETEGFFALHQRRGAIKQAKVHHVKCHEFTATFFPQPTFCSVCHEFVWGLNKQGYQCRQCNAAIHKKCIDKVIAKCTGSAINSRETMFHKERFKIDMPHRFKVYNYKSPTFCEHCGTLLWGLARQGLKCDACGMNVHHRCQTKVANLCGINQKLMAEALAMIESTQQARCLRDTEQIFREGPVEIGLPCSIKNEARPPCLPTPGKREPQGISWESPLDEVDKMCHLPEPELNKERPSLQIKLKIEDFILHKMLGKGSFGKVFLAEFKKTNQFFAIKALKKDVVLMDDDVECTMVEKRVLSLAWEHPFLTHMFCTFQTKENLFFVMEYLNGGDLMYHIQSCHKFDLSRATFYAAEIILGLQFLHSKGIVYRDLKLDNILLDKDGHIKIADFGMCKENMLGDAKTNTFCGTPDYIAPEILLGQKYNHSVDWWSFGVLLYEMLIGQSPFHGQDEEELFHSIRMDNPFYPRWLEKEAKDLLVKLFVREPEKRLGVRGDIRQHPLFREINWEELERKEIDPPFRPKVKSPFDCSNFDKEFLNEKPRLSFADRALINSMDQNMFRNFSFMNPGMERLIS
The test is described as follows: KINOMEscan panel screen. The following applies: read-out: Percent Control(%). Format: binding.

The next test concerns the target T19, CAMK1D (Homo sapiens, UniProt Q8IU85).
T19 construct: purchased DiscoveRx KINOMEscan (Ambit Biosciences)
Put plainly: KINOMEscan panel screen. The test is classed as binding. The conditions noted are these: read-out: Percent Control(%).

T6 sequence (P00533 25-1210 G719S): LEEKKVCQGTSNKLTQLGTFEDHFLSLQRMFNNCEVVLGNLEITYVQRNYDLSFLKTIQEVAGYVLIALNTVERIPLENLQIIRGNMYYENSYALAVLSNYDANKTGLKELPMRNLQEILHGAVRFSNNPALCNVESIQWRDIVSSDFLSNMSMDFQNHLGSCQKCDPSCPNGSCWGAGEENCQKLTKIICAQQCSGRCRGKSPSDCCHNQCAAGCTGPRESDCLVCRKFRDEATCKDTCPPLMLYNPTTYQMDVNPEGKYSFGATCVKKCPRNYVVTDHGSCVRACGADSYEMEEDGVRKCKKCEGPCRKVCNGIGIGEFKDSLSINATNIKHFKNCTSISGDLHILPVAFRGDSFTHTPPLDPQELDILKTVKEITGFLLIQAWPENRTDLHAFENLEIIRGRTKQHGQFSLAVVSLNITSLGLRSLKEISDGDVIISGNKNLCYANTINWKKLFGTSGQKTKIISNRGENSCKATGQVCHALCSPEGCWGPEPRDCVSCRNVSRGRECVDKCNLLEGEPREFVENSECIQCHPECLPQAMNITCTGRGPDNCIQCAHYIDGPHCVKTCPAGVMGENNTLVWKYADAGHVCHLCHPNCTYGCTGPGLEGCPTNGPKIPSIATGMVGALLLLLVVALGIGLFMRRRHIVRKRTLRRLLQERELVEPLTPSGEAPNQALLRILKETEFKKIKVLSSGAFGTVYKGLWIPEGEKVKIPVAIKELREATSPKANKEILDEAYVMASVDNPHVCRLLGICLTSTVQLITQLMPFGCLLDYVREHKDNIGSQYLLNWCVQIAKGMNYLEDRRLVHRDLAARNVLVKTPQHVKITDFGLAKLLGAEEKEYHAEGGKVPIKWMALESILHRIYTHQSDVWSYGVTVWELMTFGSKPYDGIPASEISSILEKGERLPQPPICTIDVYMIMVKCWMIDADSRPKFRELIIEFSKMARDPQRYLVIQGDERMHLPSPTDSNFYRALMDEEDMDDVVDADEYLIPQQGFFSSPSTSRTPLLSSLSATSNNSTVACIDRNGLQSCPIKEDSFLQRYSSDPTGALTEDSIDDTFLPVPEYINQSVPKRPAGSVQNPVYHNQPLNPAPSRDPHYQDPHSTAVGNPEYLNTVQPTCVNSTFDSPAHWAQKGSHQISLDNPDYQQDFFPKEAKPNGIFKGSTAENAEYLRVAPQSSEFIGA
T12 sequence (Q9C098 whole entry): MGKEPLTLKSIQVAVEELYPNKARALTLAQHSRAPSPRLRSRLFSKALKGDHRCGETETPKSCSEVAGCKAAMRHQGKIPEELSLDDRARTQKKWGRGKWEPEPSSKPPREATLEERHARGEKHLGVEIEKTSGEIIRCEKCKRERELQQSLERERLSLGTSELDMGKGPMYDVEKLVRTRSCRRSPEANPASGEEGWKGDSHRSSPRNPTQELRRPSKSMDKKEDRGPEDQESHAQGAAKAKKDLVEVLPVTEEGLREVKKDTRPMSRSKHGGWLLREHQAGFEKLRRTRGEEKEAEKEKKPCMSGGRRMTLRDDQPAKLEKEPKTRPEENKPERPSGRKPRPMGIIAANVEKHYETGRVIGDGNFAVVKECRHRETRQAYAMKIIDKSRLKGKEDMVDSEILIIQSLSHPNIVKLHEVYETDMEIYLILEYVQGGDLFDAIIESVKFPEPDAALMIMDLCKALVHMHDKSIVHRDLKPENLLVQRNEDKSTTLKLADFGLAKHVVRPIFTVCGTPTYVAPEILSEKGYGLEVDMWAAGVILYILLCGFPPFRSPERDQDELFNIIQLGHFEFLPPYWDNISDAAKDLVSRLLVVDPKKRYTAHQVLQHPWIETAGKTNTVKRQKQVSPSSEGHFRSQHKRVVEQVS
T1 sequence (P31152 whole entry): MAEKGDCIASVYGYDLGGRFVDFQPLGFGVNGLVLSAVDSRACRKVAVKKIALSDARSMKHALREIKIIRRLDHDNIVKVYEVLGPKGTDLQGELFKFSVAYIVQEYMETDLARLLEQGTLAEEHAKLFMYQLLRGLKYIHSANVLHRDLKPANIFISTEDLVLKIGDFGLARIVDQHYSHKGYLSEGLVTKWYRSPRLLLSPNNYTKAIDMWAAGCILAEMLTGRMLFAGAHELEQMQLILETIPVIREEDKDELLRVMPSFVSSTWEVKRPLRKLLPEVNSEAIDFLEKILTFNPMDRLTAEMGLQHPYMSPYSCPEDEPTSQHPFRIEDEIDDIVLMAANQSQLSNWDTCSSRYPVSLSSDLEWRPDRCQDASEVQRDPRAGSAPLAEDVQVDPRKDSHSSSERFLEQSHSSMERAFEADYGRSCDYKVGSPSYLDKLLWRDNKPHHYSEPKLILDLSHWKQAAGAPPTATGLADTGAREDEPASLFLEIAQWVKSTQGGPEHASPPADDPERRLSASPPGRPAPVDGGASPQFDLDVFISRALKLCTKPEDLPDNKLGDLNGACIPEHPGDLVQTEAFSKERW
T19 sequence (Q8IU85 whole entry): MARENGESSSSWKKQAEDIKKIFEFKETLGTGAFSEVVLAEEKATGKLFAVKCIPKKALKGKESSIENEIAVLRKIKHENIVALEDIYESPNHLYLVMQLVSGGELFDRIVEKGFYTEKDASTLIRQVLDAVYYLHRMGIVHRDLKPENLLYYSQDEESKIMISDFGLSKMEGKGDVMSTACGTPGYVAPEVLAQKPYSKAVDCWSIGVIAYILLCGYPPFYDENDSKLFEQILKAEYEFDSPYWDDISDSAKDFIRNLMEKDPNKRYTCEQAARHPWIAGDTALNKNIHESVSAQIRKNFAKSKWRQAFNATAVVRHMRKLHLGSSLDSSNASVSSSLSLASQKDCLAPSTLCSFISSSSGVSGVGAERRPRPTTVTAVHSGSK

The term IC50 denotes the concentration at which inhibition is half-maximal. Consider `CC(C)(C)c1cc(NC(=O)Nc2ccc(Oc3ncnc4[nH]ncc34)c(F)c2)no1` [SKLB-677, 1-(4-(1H-pyrazolo[3,4-d]pyrimidin-4-yloxy)-3-fluorophenyl)-3-(5-tert-butylisoxazol-3-yl)urea], for which the remaining binding at 10 µM at ERK4 is 98%; on TXK, 88%; in [1], 19%; at ALK(C1156Y) it was 17%; at EPHB1, 3.2%; on EGFR(G719S) it was 47%. Also, the remaining binding at 10 µM on INSRR worked out at 42%; on CDK2, 1.6%; on MLCK, 58%; at RIOK2, 88%; on PIM1, 26%; in test [2], 14%. Also, the remaining binding at 10 µM was 81% on DCAMKL3; 10% in [3]; 96% on PIK3CA(C420R); 63% at MEK3; 99% on MLK2; 31% on RIPK1. In addition, the remaining binding at 10 µM at PRKCQ was 50%; on CAMK1D it was 35%. The IC50 was 8.4 µM in the test with Ramos and more than 10 µM with C32. Moreover, the “apoptosis of AML cells” value with MV4-11 cells is “about 50%”. Moreover, in the test on EGFR(L747-T751del,Sins), the “Percent Control(%)” value stood at 61%.
